Results as given in BindingDB's records for doi:10.1021/jm00080a030 (Abbott Laboratories, 1992).

These compounds were tested against C5a anaphylatoxin chemotactic receptor 1 (Homo sapiens) (UniProt P21730) (assay: Potency as the maximal lysosomal myeloperoxidase (MPO) release in PMNL assay).
Sequence of C5a anaphylatoxin chemotactic receptor 1 (Homo sapiens) (P21730 whole entry, looked up): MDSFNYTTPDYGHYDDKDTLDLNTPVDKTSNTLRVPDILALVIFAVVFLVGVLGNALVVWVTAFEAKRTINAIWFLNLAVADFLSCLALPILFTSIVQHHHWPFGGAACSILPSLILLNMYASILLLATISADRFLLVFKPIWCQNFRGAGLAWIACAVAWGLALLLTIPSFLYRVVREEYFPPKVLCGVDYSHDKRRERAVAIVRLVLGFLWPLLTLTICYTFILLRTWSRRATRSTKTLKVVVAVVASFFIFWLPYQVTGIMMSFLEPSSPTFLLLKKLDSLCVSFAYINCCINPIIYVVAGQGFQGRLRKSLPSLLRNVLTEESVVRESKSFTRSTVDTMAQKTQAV
Compound Ac-FKDMQLGR-OH has an EC50 of 35 µM.
Compound H-LRANISFKDMQLGR-OH has an EC50 of 60 µM.
Work on CSCC[C@H](NC(=O)[C@H](CC(=O)O)NC(=O)[C@H](CCCCN)NC(=O)[C@@H](N)Cc1cccs1)C(=O)N[C@@H](CCC(N)=O)C(=O)N[C@@H](CC(C)C)C(=O)NCC(=O)N[C@@H](CCCNC(=N)N)C(=O)O yielded an EC50 of 200 µM.
